Data: patent publication US20080306028A1, “Erianin Salts, Their Preparation Methods and Pharmaceutical Compositions Containing the Same” (priority 2005, published 2008)
Where two headings read alike, the source gives them in different places.

Key:
[1] = solubility in water; format: physicochemical; conditions: product of example 1
Procedure: As the water-solubility of Erianin is low, the solubility in water being just <1 mg/ml, its preparation performance and clinical application are limited, so it is necessary to study the salts that can improve its water-solubility. At present, there is not any literature on the salts of Erianin and it's preparing process.
Cooling the crude acyl chloride in ice bath, adding sodium hydroxide solution (2 mol/L) while stirring till the PH value of the mixture is between 8˜10, stirring for 8 hours at 50° C.˜80° C., filtering to remove the insoluble substance, decompressing to evaporate most of the solvent, cooling for the white solid to be separated, which is the crude disodium phosphate of Erianin; Dissolving the crude product with ethanol while heated, filtering to remove the insoluble solid while hot, and cooling the filtrate for separated crystal as pure disodium phosphate of Erianin (6.0 g), a white crystal product with a yield of 86% m.p. 266-269° C., (splitting), dissolubility in water: 200 mg/ml.

[2] = test system: Kunming mice; experiment: LD50 determination of disodium phosphate of Erianin; format: in vivo; conditions: for deaths, death rate in total: 10 mice
Procedure: Experimental animal: Kunming mice, provided by Shanghai Slac Laboratory Animal Co., Ltd., weight being between 18˜22 g, half and half of female and male.
Reagent: 0.9% NaCl, disodium phosphate of Erianin (AP), provided by Zhejiang Cell Biomedical Research Co., Ltd., which is prepared by the process above, bitter acid.
(1) Experimental animal: Kunming mice, set up in 7 groups, 10 mice every group and half and half of female and male. Marked by bitter acid.
(2) In every group, administering by vena caudalis injection according to body weight of 1300 mg/kg, 1250 mg/kg, 1200 mg/kg, 1150 mg/kg, 1100 mg/kg, 1050 mg/kg, 1000 mg/kg.
(3) Observing at 0.25 h, 0.5 h, 1 h, 2 h, 4 h, 24 h respectively after administration and recording the death rate; then observing once every day and recording the death rate (table 1) for 14 days; putting the mice still alive to death on the 15th day and giving pathological anatomy.

[3] = test system: S180 tumor; conditions: for Weight 10 d: body weight day 10; for Tumor weight / rate of tumor inhibition: day 10; for Weight 0 d: body weight day 0
Description: Samples: disodium phosphate of Erianin (AP, prepared by the process of example 1) prepared the concentration needed with physiologic saline.
Control medicine: cyclophosphamide for injection (CTX), Shanghai Hualian Pharmaceutical Co., Ltd, batch number: 020806. dissolved with physiologic saline for use.
Fifty Kunming mice, female, weight: […], provided by the animal house in Shanghai Institute of Pharmaceutical Industry.
Two S180 ascites tumor mice, provided by the animal house in Shanghai Institute of Pharmaceutical Industry.
Drawing ascites under aseptic condition from S180 ascites tumor mice, counting the cells, diluting to 1-2×10^7/ml with physiologic saline, giving subcutaneous inoculation in the armpit of the mice with 0.2 ml each, randomly dividing the mice equally into five groups the next day, ten in each group.
Dosage for administration (mg/kg./d): AP 25 mg/kg, 75 mg/kg, 225 mg/kg
Means of administration: intravenous injection
The control medicine, cyclophosphamide, administered by intravenous injection, the dosage being 30 mg/kg×9d.
And setting up blank control group.
Administering medicine to the mice by weight the next day of inoculation, […] 0.5 ml/20 g for 9 days, by weight, and putting them to death on the tenth day after inoculation, weighing the tumor and calculating the rate of tumor inhibition.
Assessing the result according to the following formula: […]

[4] = background statement; cited from earlier work
[5] = test system: liver cancer of mouse; conditions: cited from earlier work
[6] = test system: human leukemia HL-60 cells; conditions: cited from earlier work
[7] = test system: tumor cell strain K256; conditions: among dihydrobibenzyls and phenanthrenes in Dendrobium chrysotoxum; cited from earlier work

Q: What does the source list for “3,4,5,4′-tetramethoxyl diphenylethane-3′-O-disodic phosphate [AP]”?
A: dissolubility in water [1]: 200 mg/mL; deaths, death rate in total ([2]; 1000 mg/kg i.v.): 0; deaths, death rate in total ([2]; 1050 mg/kg i.v.): 1; deaths ([2]; 1050 mg/kg i.v., day 1): 1; deaths, death rate in total ([2]; 1100 mg/kg i.v.): 3; deaths ([2]; 1100 mg/kg i.v., day 1): 3; deaths, death rate in total ([2]; 1150 mg/kg i.v.): 1; deaths ([2]; 1150 mg/kg i.v., day 1): 1; deaths, death rate in total ([2]; 1200 mg/kg i.v.): 3; deaths ([2]; 1200 mg/kg i.v., day 5): 1; deaths ([2]; 1200 mg/kg i.v., day 6): 1; deaths ([2]; 1200 mg/kg i.v., hours 0-4): 1; deaths, death rate in total ([2]; 1250 mg/kg i.v.): 6; deaths ([2]; 1250 mg/kg i.v., day 1): 3; deaths ([2]; 1250 mg/kg i.v., day 2): 2; deaths ([2]; 1250 mg/kg i.v., hours 0-4): 1; deaths, death rate in total ([2]; 1300 mg/kg i.v.): 7; deaths ([2]; 1300 mg/kg i.v., day 1): 6; deaths ([2]; 1300 mg/kg i.v., day 3): 1; LD50 ([2]; Kunming mice, vena caudalis injection, 14 days observation): 1243.0377 mg/kg; pathological anatomy ([2]; mice died during the experiment and mice executed after 14 days): no obvious pathological change; Weight 10 d ([3]; 25 mg/kg i.v. for 9 days): 22.93 ± 1.28 g; Tumor weight ([3]; 25 mg/kg i.v. for 9 days): 1.42 ± 0.26; rate of tumor inhibition ([3]; 25 mg/kg i.v. for 9 days): 42%; Weight 0 d ([3]; 25 mg/kg i.v.): 18.37 ± 1.58 g; Weight 10 d ([3]; 75 mg/kg i.v. for 9 days): 22.75 ± 2.25 g; Tumor weight ([3]; 75 mg/kg i.v. for 9 days): 0.82 ± 0.20; rate of tumor inhibition ([3]; 75 mg/kg i.v. for 9 days): 67%; Weight 0 d ([3]; 75 mg/kg i.v.): 18.41 ± 1.74 g; Weight 10 d ([3]; 225 mg/kg i.v. for 9 days): 22.01 ± 3.46 g; Tumor weight ([3]; 225 mg/kg i.v. for 9 days): 0.69 ± 0.08; rate of tumor inhibition ([3]; 225 mg/kg i.v. for 9 days): 72%; Weight 0 d ([3]; 225 mg/kg i.v.): 19.65 ± 1.26 g

Q: With `O=P1(N(CCCl)CCCl)NCCCO1` (centres unmarked) [CTX, cyclophosphamide, reference compound] as the compound, how does the “Weight 0 d” value ([3]; 30 mg/kg i.v.) read?
A: 19.78 ± 1.20 g

Q: And the “Weight 10 d” value ([3]; 30 mg/kg×9d i.v.)?
A: 19.58 ± 2.54 g

Q: What about the Tumor weight ([3]; 30 mg/kg×9d i.v.) of the same compound?
A: 0.41 ± 0.17

Q: And the “rate of tumor inhibition” value ([3]; 30 mg/kg×9d i.v.)?
A: 83%

Q: For `COc1ccc(CCc2cc(OC)c(OC)c(OC)c2)cc1O` [Erianin], which solubility in water [4] is on record?
A: < 1 mg/mL

Q: And the tumor inhibitory rate [5]?
A: 50.82%

Q: What about the “growth of human leukemia HL-60 cells” value [6] of the same compound?
A: significantly inhibited

Q: What about the “inhibitory effect on the growth of tumor cell strain K256” value [7] of the same compound?
A: the most active
